# Measurements taken from article PMC6934184, “Selective DNA-PKcs inhibition extends the therapeutic index of localized radiotherapy and chemotherapy” (The Journal of Clinical Investigation, 2019).
# Biological target: T1, TGFBR1 (ALK5) (Homo sapiens, UniProt P36897)
# T1 construct: purchased Thermo Fisher Scientific (Life Technologies) SelectScreen
# Test: SelectScreen LanthaScreen
# Assay type: binding
# Conditions: read-out: % displacement
# Procedure, shortened: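 NU5455 was profiled across the SelectScreen Broad panel of kinase activity and binding assays. Z'LYTE reactions such as CSF1R ran at apparent Km ATP, while the Adapta CAMK1 assay used ATP listed as 10. Values are given as percent.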
# T1 sequence (P36897 34-503): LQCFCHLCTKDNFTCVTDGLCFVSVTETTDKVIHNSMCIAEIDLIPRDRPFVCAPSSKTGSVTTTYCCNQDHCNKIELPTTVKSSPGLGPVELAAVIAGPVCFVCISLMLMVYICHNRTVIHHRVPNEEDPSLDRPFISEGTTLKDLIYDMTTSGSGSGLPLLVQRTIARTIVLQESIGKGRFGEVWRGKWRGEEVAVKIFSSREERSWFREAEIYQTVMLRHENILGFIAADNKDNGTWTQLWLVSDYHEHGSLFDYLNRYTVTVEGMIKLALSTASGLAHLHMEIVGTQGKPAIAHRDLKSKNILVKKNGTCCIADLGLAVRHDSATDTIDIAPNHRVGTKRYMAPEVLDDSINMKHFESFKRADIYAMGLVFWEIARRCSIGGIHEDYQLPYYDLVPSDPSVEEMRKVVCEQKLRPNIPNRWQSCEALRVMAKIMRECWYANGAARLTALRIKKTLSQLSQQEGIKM
smiles,measurement,value
CN(C(=O)CN1CCOCC1)c1ccc2sc3c(-c4cccc5c(=O)cc(N6CC7CCC(C6)O7)oc45)cccc3c2c1 [NU5455],inhibition at 1 µM,-0.4%
